Data taken from paper PMC9181188 (International Journal of Molecular Sciences, 2022).
Converted amounts (≈) assume the structure as drawn. Like-named read-outs stand apart in the source and are kept apart here.

Columns and labels:
[1] = tested on: S. aureus ATCC 6538; experiment: MIC, twofold microdilution, standard strain; assay type: cell-based; conditions: Staphylococcus aureus, ATCC6538; 18 h of treatment; read-out: MIC S. aureus ATCC 6538
[2] = tested on: S. epidermidis KR 4047 825/19; experiment: MIC, clinical S. epidermidis strain; assay type: cell-based; conditions: Staphylococcus epidermidis, KR4047825/19, quinolone-resistant, 18 h of treatment
[3] = tested on: SW480, SW620, and PC3 cancer cell lines; experiment: MTT assay, cancer cell lines as a group; assay type: cell-based, human; conditions: 72 h, all three cancer cell lines (SW480, SW620, PC3), read-out: IC50 against all tested cancer cell lines
[4] = target: T1, S. aureus topoisomerase IV (Staphylococcus aureus, UniProt P0C1S7+P0C1U9); experiment: S. aureus topoisomerase IV decatenation assay; assay type: biochemical
T1 construct: purchased Inspiralis
T1 sequence (P0C1U9 whole entry): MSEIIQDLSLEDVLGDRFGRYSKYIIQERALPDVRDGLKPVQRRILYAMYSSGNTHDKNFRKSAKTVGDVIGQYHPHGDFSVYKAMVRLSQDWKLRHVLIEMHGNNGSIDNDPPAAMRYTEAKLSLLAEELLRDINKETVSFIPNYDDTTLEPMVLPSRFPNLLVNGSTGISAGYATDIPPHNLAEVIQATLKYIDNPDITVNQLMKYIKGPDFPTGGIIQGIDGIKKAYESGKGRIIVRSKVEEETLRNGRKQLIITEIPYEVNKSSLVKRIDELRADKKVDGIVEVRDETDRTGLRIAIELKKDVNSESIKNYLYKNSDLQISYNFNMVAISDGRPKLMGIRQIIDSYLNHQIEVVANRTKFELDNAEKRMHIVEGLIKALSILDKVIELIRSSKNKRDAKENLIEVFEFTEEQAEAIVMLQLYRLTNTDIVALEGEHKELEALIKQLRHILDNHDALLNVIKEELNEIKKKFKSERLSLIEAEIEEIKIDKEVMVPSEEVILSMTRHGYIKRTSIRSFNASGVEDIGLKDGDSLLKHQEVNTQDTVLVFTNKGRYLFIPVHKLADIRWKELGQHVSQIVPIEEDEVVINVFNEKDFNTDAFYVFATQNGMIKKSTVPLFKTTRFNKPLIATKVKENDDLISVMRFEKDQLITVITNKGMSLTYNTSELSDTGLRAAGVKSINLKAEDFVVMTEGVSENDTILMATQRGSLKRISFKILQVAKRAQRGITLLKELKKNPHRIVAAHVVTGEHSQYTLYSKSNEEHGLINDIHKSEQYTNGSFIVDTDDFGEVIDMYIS
T1 sequence (P0C1S7 whole entry): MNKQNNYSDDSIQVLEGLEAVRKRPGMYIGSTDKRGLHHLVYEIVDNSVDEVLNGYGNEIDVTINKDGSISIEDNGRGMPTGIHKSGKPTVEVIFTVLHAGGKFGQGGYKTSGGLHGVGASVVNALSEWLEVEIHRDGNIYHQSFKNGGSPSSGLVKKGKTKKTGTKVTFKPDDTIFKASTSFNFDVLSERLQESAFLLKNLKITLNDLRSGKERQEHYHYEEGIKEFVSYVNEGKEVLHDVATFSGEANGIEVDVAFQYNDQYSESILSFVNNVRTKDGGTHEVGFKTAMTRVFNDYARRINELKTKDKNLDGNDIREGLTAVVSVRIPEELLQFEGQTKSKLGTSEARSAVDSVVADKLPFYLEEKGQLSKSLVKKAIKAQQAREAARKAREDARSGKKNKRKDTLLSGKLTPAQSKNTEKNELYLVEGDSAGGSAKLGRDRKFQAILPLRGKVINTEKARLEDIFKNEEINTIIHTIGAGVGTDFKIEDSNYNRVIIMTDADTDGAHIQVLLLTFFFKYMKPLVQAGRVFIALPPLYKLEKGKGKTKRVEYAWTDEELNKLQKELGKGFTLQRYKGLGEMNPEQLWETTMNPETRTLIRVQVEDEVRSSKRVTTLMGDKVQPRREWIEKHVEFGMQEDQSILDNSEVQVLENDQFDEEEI
Method: The assay was performed using S. aureus topoisomerase IV […] kit (Inspiralis). Kinetoplast DNA (kDNA) was the substrate for topoisomerase IV.

[5] = tested on: P. aeruginosa ATCC 27853; experiment: MIC, twofold microdilution, standard strain; assay type: cell-based; conditions: Pseudomonas aeruginosa, ATCC27853; 18 h of treatment; read-out: MIC P. aeruginosa ATCC 27853
[6] = tested on: M. tuberculosis H37Rv; experiment: MABA (microplate Alamar blue assay) MIC; assay type: cell-based; conditions: Mycobacterium tuberculosis, 336 h, 2 weeks of treatment, read-out: MIC M. tuberculosis H37Rv
[7] = tested on: S. aureus NCTC 4163; experiment: MIC, twofold microdilution, standard strain; assay type: cell-based; conditions: Staphylococcus aureus, NCTC4163; 18 h of treatment; read-out: MIC S. aureus NCTC 4163
[8] = tested on: SW480 cells; experiment: MTT assay, SW480; assay type: cell-based, human; conditions: for IC50: Homo sapiens, SW480, 72 h, human primary colon cancer, 72 h, MTT, mean ± SD; for SI SW480: SI = IC50 for normal cell line (HaCaT)/IC50 cancer cell line
[9] = tested on: S. epidermidis T 5501 851/19; experiment: MIC, clinical S. epidermidis strain; assay type: cell-based; conditions: Staphylococcus epidermidis, T5501851/19, read-out: MIC T 5501 851/19, quinolone-susceptible, 18 h of treatment
[10] = tested on: S. epidermidis KR 4313 834/19; experiment: MIC, clinical S. epidermidis strain; assay type: cell-based; conditions: Staphylococcus epidermidis, KR4313834/19, quinolone-susceptible, 18 h of treatment
[11] = tested on: HaCaT cells; experiment: MTT assay, HaCaT normal cells; assay type: cell-based; conditions: human immortal keratinocyte cell line, 72 h, mean ± SD
[12] = tested on: S. epidermidis KR 4358/2 840/19; experiment: MIC, clinical S. epidermidis strain; assay type: cell-based; conditions: Staphylococcus epidermidis, KR4358/2840/19; clinical S. epidermidis, quinolone-susceptible, 18 h of treatment; read-out: MIC KR 4358/2 840/19
[13] = tested on: S. epidermidis ATCC 35984; experiment: MIC, twofold microdilution, standard strain; assay type: cell-based; conditions: Staphylococcus epidermidis, ATCC35984; 18 h of treatment; read-out: MIC S. epidermidis ATCC 35984
[14] = tested on: quinolone-susceptible clinical coagulase-negative staphylococci; experiment: MIC, quinolone-susceptible clinical isolates as a group; assay type: cell-based; conditions: Staphylococcus epidermidis; five quinolone-susceptible isolates; read-out: MIC against quinolone-susceptible clinical isolates
[15] = tested on: S. epidermidis ATCC 12228; experiment: MIC, twofold microdilution, standard strain; assay type: cell-based; conditions: Staphylococcus epidermidis, ATCC12228; 18 h of treatment; read-out: MIC S. epidermidis ATCC 12228
[16] = tested on: M. tuberculosis Spec. 192 (Sensitive to Tuberculostatics); experiment: MABA (microplate Alamar blue assay) MIC; assay type: cell-based; conditions: Mycobacterium tuberculosis, 336 h; 2 weeks of treatment; read-out: MIC M. tuberculosis Spec. 192 (Sensitive to Tuberculostatics)
[17] = tested on: S. epidermidis KR 4243 829/19; experiment: MIC, clinical S. epidermidis strain; assay type: cell-based; conditions: Staphylococcus epidermidis, KR4243829/19, quinolone-susceptible, 18 h of treatment
[18] = tested on: S. aureus ATCC 29213; experiment: MIC, twofold microdilution, standard strain; assay type: cell-based; conditions: Staphylococcus aureus, ATCC29213; 18 h of treatment; read-out: MIC S. aureus ATCC 29213
[19] = tested on: SW620 cells; experiment: MTT assay, SW620; assay type: cell-based, human; conditions: for IC50: Homo sapiens, SW-620, 72 h, human metastatic colon cancer, 72 h, MTT, mean ± SD; for SI SW620: SI = IC50 for normal cell line (HaCaT)/IC50 cancer cell line
[20] = tested on: standard staphylococci (S. aureus, S. epidermidis); experiment: MIC, standard Gram-positive strains as a group; assay type: cell-based; conditions: Staphylococcus aureus; range over standard Gram-positive strains; read-out: MIC against standard staphylococci
[21] = tested on: E. coli ATCC 25922; experiment: MIC, twofold microdilution, standard strain; assay type: cell-based, Escherichia coli; conditions: 18 h of treatment; for MIC: Escherichia coli, ATCC25922, read-out: MIC E. coli ATCC 25922
[22] = tested on: PC3 cells; experiment: MTT assay, PC3; assay type: cell-based, human; conditions: for IC50: human metastatic prostate cancer, 72 h, MTT, mean ± SD; for SI PC3: SI = IC50 for normal cell line (HaCaT)/IC50 cancer cell line
[23] = tested on: S. epidermidis T 5399 848/19; experiment: MIC, clinical S. epidermidis strain; assay type: cell-based; conditions: Staphylococcus epidermidis, T5399848/19, quinolone-susceptible, 18 h of treatment
[24] = target: S. aureus DNA gyrase (Staphylococcus aureus, UniProt P0A0K8+P20831); experiment: biochemical
Chain of S. aureus DNA gyrase (P20831 whole entry): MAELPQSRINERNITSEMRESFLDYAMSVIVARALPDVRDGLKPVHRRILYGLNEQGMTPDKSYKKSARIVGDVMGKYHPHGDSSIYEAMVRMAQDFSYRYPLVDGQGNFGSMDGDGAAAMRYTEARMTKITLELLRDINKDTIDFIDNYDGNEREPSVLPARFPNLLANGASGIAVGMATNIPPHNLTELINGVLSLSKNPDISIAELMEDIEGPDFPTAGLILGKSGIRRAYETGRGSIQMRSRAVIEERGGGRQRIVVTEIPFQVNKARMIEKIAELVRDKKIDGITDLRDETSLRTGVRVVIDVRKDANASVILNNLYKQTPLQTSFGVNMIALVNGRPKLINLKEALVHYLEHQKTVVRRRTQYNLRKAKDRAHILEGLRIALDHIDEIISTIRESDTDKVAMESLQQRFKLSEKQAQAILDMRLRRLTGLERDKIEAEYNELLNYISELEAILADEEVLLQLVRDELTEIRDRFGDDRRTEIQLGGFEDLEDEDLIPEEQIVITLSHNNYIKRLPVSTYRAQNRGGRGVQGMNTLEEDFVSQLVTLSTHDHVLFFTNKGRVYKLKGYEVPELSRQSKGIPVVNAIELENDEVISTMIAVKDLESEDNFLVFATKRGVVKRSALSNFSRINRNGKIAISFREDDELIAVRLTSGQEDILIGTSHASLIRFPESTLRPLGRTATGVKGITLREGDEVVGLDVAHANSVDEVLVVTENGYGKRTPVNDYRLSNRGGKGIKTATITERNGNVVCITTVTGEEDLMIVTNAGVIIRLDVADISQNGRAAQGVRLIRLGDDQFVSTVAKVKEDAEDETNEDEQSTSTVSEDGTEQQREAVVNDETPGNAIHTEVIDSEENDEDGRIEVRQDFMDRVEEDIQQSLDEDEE
Chain of S. aureus DNA gyrase (P0A0K8 whole entry): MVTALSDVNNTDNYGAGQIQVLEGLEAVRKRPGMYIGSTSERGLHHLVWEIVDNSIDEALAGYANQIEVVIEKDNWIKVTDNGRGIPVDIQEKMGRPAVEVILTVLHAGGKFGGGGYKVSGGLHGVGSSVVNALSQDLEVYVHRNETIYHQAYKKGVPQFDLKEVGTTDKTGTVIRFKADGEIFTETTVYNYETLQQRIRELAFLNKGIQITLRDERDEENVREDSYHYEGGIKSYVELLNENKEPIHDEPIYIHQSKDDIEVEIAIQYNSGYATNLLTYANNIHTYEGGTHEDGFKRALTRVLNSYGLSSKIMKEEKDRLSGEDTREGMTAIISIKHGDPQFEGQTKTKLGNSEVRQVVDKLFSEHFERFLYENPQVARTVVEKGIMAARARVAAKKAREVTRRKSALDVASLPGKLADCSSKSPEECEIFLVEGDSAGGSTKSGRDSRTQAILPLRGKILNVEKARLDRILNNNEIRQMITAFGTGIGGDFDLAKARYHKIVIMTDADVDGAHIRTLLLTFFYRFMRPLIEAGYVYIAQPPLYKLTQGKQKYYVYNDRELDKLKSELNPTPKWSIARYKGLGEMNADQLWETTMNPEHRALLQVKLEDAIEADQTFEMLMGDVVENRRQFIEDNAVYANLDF

[25] = tested on: S. aureus ATCC 25923; experiment: MIC, twofold microdilution, standard strain; assay type: cell-based; conditions: Staphylococcus aureus, ATCC25923; 18 h of treatment; read-out: MIC S. aureus ATCC 25923
[26] = tested on: S. epidermidis T 5253 845/19; experiment: MIC, clinical S. epidermidis strain; assay type: cell-based; conditions: Staphylococcus epidermidis, T5253845/19, quinolone-resistant, 18 h of treatment

`CC/C=C\C/C=C\C/C=C\C/C=C\C/C=C\C/C=C\CCC(=O)N1CCCC2CN(c3c(F)cc4c(=O)c(C(=O)O)cn(C5CC5)c4c3OC)CC21` (stereo not shown) [Compound 8m, 1-Cyclopropyl-7-{1-(4Z,7Z,10Z,13Z,16Z,19Z)-docosa-4,7,10,13,16,19-hexaenoyl-octahydro-pyrrolo[3,4-b]pyridin-6-yl}-6-fluoro-8-methoxy-4-oxo-1,4-dihydro-quinoline-3-carboxylic acid] showed an MIC [1] of 2 µg/mL (≈ 2.81 µM), an MIC [2] of 512 µg/mL (≈ 719 µM) and an IC50 ([3]; Homo sapiens) of 5 to 10 µM. For the same molecule, the IC50 [3] was 5.6 to 10.4 µM, the IC50 [4] was over 89.9 µM and the MIC [5] was over 512 µg/mL. The MIC [6] was 8 µg/mL (≈ 11.2 µM), the MIC [7] was 2 µg/mL (≈ 2.81 µM) and the IC50 [8] was 6.2 ± 1.3 µM. For the same molecule, the “SI SW480” value [8] was 13.1, the MIC [9] was 4 µg/mL (≈ 5.62 µM) and the MIC [10] was 4 µg/mL (≈ 5.62 µM). The IC50 [11] was 81.4 ± 3.2 µM, the MIC [12] was 4 µg/mL (≈ 5.62 µM) and the MIC [13] was 2 µg/mL (≈ 2.81 µM). It also gave an MIC [14] of 4 µg/mL (≈ 5.62 µM), an MIC [15] of 4 µg/mL (≈ 5.62 µM) and an MIC [16] of 4 µg/mL (≈ 5.62 µM). It also gave an MIC [17] of 4 µg/mL (≈ 5.62 µM), an MIC [18] of 4 µg/mL (≈ 5.62 µM) and an IC50 [19] of 9.4 ± 3.7 µM. For the same molecule, the “SI SW620” value [19] was 8.7, the MIC [20] was 2 to 4 µg/mL (≈ 2.81 to 5.62 µM) and the “MIC E. coli ATCC 25922” value [21] was 2 to 16 µg/mL. The MIC [21] was 2 µg/mL (≈ 2.81 µM), the IC50 ([22]; Homo sapiens, PC-3, 72 h) was 5.6 ± 1.9 µM and the “SI PC3” value [22] was 14.5. The MIC [23] was 4 µg/mL (≈ 5.62 µM), the IC50 [24] was over 89.9 µM and the MIC [25] was 2 µg/mL (≈ 2.81 µM). The MIC [26] was 512 µg/mL (≈ 719 µM).
`C=CCCCCC(=O)N1CCCC2CN(c3c(F)cc4c(=O)c(C(=O)O)cn(C5CC5)c4c3OC)CC21` (stereo not shown) [Compound 10m, 1-Cyclopropyl-6-fluoro-7-(1-hept-6-enoyl-octahydro-pyrrolo[3,4-b]pyridin-6-yl)-8-methoxy-4-oxo-1,4-dihydro-quinoline-3-carboxylic acid] showed an MIC [1] of 2 µg/mL (≈ 3.91 µM), an MIC [2] of 16 µg/mL (≈ 31.3 µM) and an MIC [5] of over 512 µg/mL. It also gave an MIC [6] of 32 µg/mL (≈ 62.5 µM), an MIC [7] of 2 µg/mL (≈ 3.91 µM) and an IC50 [8] of 5.8 ± 0.8 µM. The “SI SW480” value [8] was 15.1, the MIC [9] was 4 µg/mL (≈ 7.82 µM) and the MIC [10] was 2 µg/mL (≈ 3.91 µM). For the same molecule, the IC50 [11] was 87.6 ± 4.5 µM, the MIC [12] was 4 µg/mL (≈ 7.82 µM) and the MIC [13] was 2 µg/mL (≈ 3.91 µM). The MIC [14] was 2 to 8 µg/mL (≈ 3.91 to 15.6 µM), the MIC [15] was 4 µg/mL (≈ 7.82 µM) and the MIC [16] was 32 µg/mL (≈ 62.5 µM). For the same molecule, the MIC [17] was 2 µg/mL (≈ 3.91 µM), the MIC [18] was 2 µg/mL (≈ 3.91 µM) and the IC50 [19] was 6.2 ± 1.1 µM. The “SI SW620” value [19] was 14.1, the MIC [20] was 2 to 4 µg/mL (≈ 3.91 to 7.82 µM) and the MIC [21] was 32 µg/mL (≈ 62.5 µM). The IC50 ([22]; Homo sapiens, PC-3, 72 h) was under 5 µM, the “SI PC3” value [22] was 19.0 and the IC50 [22] was 4.6 ± 1.1 µM. The MIC [23] was 2 µg/mL (≈ 3.91 µM), the MIC [25] was 2 µg/mL (≈ 3.91 µM) and the MIC [26] was 16 µg/mL (≈ 31.3 µM).
For `CCCCC/C=C\C/C=C\C/C=C\C/C=C\CCCC(=O)N1CCCC2CN(c3c(F)cc4c(=O)c(C(=O)O)cn(C5CC5)c4c3OC)CC21` (stereo not shown) [Compound 13m, 1-Cyclopropyl-6-fluoro-7-{1-(5Z,8Z,11Z,14Z)-icosa-5,8,11,14-tetraenoyl-octahydro-pyrrolo[3,4-b]pyridin-6-yl}-8-methoxy-4-oxo-1,4-dihydro-quinoline-3-carboxylic acid], the MIC [1] was 16 µg/mL (≈ 23.3 µM), the MIC [2] was 256 µg/mL (≈ 372 µM) and the MIC [5] was over 512 µg/mL. The MIC [6] was 4 µg/mL (≈ 5.81 µM), the MIC [7] was 16 µg/mL (≈ 23.3 µM) and the IC50 [8] was 32.3 ± 4.1 µM. For the same molecule, the “SI SW480” value [8] was 2.9, the MIC [9] was 8 µg/mL (≈ 11.6 µM) and the MIC [10] was 8 µg/mL (≈ 11.6 µM). It also gave an IC50 [11] of 93.3 ± 2.8 µM, an MIC [12] of 8 µg/mL (≈ 11.6 µM) and an MIC [13] of 16 µg/mL (≈ 23.3 µM). It also gave an MIC [14] of 2 to 8 µg/mL (≈ 2.91 to 11.6 µM), an MIC [15] of 16 µg/mL (≈ 23.3 µM) and an MIC [16] of 4 µg/mL (≈ 5.81 µM). It also gave an MIC [17] of 4 µg/mL (≈ 5.81 µM), an MIC [18] of 16 µg/mL (≈ 23.3 µM) and an IC50 [19] of 39.4 ± 4.1 µM. The “SI SW620” value [19] was 2.4, the MIC [20] was 8 to 32 µg/mL (≈ 11.6 to 46.5 µM) and the “MIC E. coli ATCC 25922” value [21] was 2 to 16 µg/mL. For the same molecule, the MIC [21] was 16 µg/mL (≈ 23.3 µM), the IC50 ([22]; Homo sapiens, PC-3, 72 h) was 28.3 ± 2.8 µM and the “SI PC3” value [22] was 3.3. It also gave an MIC [23] of 4 µg/mL (≈ 5.81 µM), an MIC [25] of 16 µg/mL (≈ 23.3 µM) and an MIC [26] of 512 µg/mL (≈ 744 µM).
